US20100216753A1, “CONTROLLED RELEASE OF DRUGS INTO/THROUGH THE SKIN” (Galderma S.A., priority 2005, published 2010)

Experiment: Distribution of the drug in human skin (Franz' cells)
Type: in vitro ADME
Settings: 16 hours after application on a human skin (Franz' cells)

- Skin distribution of the drug: accumulate in the Stratum corneum
Compound: CCC(=O)O[C@]1(C(=O)CCl)[C@@H](C)C[C@H]2[C@@H]3CCC4=CC(=O)C=C[C@]4(C)[C@@]3(F)[C@@H](O)C[C@@]21C [Clobetasol-17-propionate]
